Experimental data published in US20250296938A1, “Compounds that Interact with the Ras Superfamily for the Treatment of Cancers, Inflammatory Diseases, Rasopathies, and Fibrotic Disease” (SHY Therapeutics, LLC, priority 2018, published 2025).
Like-named read-outs stand apart in the source and are kept apart here.

How the values were obtained:
Assay in all cases: Ras GTP binding domain inhibition assay (Cy3-GTP/Cy5-GTP competition)
Rho-A = Rho-A (Homo sapiens, UniProt P61586)
Summary of the method: (§1)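 First, His-tagged protein is coated on nickel wells overnight at 4 °C. Next, compound (20 μM single point or serial dilution) is added for 3 h at room temperature, with or without Sos exchange factor in the last hour. Finally, 100 nM labelled GTP binds for 45 min and retained signal is measured.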

KRas G12D mutant = molecular target: T1, KRas G12D mutant (Homo sapiens, UniProt P01116, G12D); conditions: at 20 μM
T1 construct: fused on or other part: His tag, used for capture on nickel-coated plates
Summary of the method: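 His-tagged Ras proteins were captured on nickel-coated wells in Buffer-I (25 mM Tris-HCl pH 7.4, 27 mM KCl, 137 mM NaCl, 1 mM MgCl2, 1 mM DTT) or Buffer-II (50 mM Tris-HCl pH 7.0). Compounds (20 μM or serial dilution, 1% DMSO) were incubated 3 h at RT, ±Sos(556-1049) in the final hour. Bound Cy3-/Cy5-GTP (100 nM, 45 min) was read after washing.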

Rac-1 = Rac-1 (Homo sapiens, UniProt P63000)
Summary of the method: as §1

[1] = with SOS, read-out: Rho-A + SOS: % inh.
[2] = without SOS, read-out: Rho-A: % inh.
[3] = with SOS, read-out: KRas G12D mutant + SOS: % inh.
[4] = without SOS, read-out: KRas G12D mutant: % inh.
[5] = with SOS, read-out: Rac-1 + SOS: % inh.
[6] = without SOS, read-out: Rac-1: % inh.

SMILES	inhibition at 20 µM (Rho-A; [1]) [%]	inhibition at 20 µM (Rho-A; [2]) [%]	inhibition at 20 µM (KRas G12D mutant; [3]) [%]	inhibition at 20 µM (KRas G12D mutant; [4]) [%]	inhibition at 20 µM (Rac-1; [5]) [%]	inhibition at 20 µM (Rac-1; [6]) [%]
Oc1nc(-c2cn(-c3ccccc3)cn2)nc2c(-c3ccccn3)csc12 [drawing 982]	26 to 50	0	1 to 25	1 to 25	1 to 25	26 to 50
Oc1nc(-c2cn3cccnc3n2)nc2c(-c3ccccn3)csc12 [drawing 983]	1 to 25	26 to 50	1 to 25	1 to 25	0	0
COC1CCN(c2nc(-c3nccn3C)nc3sc(-c4ccccc4Cl)c(-c4cscn4)c23)C1 (stereo not drawn) [drawing 984]	51 to 75	0	51 to 75	51 to 75	76 to 100	51 to 75
COc1cccc(Cn2ccnc2-c2nc(O)c3scc(-c4ccccn4)c3n2)c1 [drawing 985]	51 to 75	26 to 50	51 to 75	76 to 100	76 to 100	76 to 100
Oc1nc(-c2nccn2Cc2ccccn2)nc2c(-c3ccccn3)csc12 [drawing 986]	51 to 75	51 to 75	51 to 75	76 to 100	51 to 75	76 to 100
COCCn1ccnc1-c1nc(O)c2scc(-c3ccccn3)c2n1 [drawing 987]	51 to 75	51 to 75	51 to 75	76 to 100	76 to 100	76 to 100
Cn1ccnc1-c1nc(O)c2scc(-c3ccccn3)c2n1 [drawing 988]	76 to 100	51 to 75	51 to 75	76 to 100	76 to 100	51 to 75
COCC(C)Nc1nc(-c2nccn2C)nc2sc(-c3ccccc3Cl)c(-c3cscn3)c12 (stereo not drawn) [drawing 989]	26 to 50	26 to 50	51 to 75	51 to 75	26 to 50	26 to 50
COCC(C)Nc1nc(-c2nccn2C)nc2sc(-c3cccc(OC)c3)c(-c3cscn3)c12 (stereo not drawn) [drawing 990]	26 to 50	26 to 50	51 to 75	51 to 75	1 to 25	26 to 50
COC1CCN(c2nc(-c3nccn3C)nc3sc(-c4ccn(C)n4)c(-c4ccccc4)c23)CC1 [drawing 991]	0	0	26 to 50	26 to 50	26 to 50	26 to 50
Cn1ccc(-c2sc3nc(-c4nccn4C)nc(N4CCC5(CCOC5)C4)c3c2-c2ccccc2)n1 (stereo not drawn) [drawing 992]	76 to 100	0	1 to 25	26 to 50	26 to 50	26 to 50
CO[C@@H]1CCC(Nc2nc(-c3nccn3C)nc3sc(-c4ccn(C)n4)c(-c4ccccc4)c23)C1 (stereo partly drawn) [drawing 994]	76 to 100	0	26 to 50	26 to 50	26 to 50	26 to 50
CO[C@H]1CCC(Nc2nc(-c3nccn3C)nc3sc(-c4ccn(C)n4)c(-c4ccccc4)c23)C1 (stereo partly drawn) [drawing 995]	76 to 100	51 to 75	51 to 75	1 to 25	51 to 75	51 to 75
Cn1ccc(-c2sc3nc(-c4nccn4C)nc(NCC4CCOC4)c3c2-c2ccccc2)n1 (stereo not drawn) [drawing 996]	0	26 to 50	1 to 25	26 to 50	26 to 50	1 to 25
Cn1ccc(-c2sc3nc(-c4nccn4C)nc(NC4CCOCC4)c3c2-c2ccccc2)n1 [drawing 997]	51 to 75	0	1 to 25	1 to 25	26 to 50	26 to 50
COC1CCN(c2nc(-c3nccn3C)nc3sc(-c4ccn(C)n4)c(-c4ccccc4)c23)C1 (stereo not drawn) [drawing 998]	1 to 25	0	1 to 25	1 to 25	26 to 50	26 to 50

SMILES	inhibition at 20 µM (Rho-A; [1]) [%]	inhibition at 20 µM (Rho-A; [2]) [%]	inhibition at 20 µM (KRas G12D mutant; [3]) [%]	inhibition at 20 µM (KRas G12D mutant; [4]) [%]	inhibition at 20 µM (Rac-1; [5]) [%]	inhibition at 20 µM (Rac-1; [6]) [%]
COCC(C)Nc1nc(-c2nccn2C)nc2sc(-c3ccn(C)n3)c(-c3ccccc3)c12 (stereo not drawn) [drawing 999]	26 to 50	0	26 to 50	1 to 25	1 to 25	1 to 25
COCCCN(C)c1nc(-c2nccn2C)nc2sc(-c3ccn(C)n3)c(-c3ccccc3)c12 [drawing 1000]	0	1 to 25	26 to 50	51 to 75	26 to 50	26 to 50
COCCCNc1nc(-c2nccn2C)nc2sc(-c3ccn(C)n3)c(-c3ccccc3)c12 [drawing 1001]	0	0	26 to 50	1 to 25	26 to 50	1 to 25
COc1cccc(-c2sc3nc(-c4nccn4C)nc(N4CCC(OC)C4)c3c2-c2cscn2)c1 (stereo not drawn) [drawing 1002]	1 to 25	0	51 to 75	1 to 25	1 to 25	0
COc1ccc(-c2c(-c3ccn(C)n3)sc3nc(-c4nccn4C)nc(N4CCC(OC)C4)c23)cc1 (stereo not drawn) [drawing 1003]	26 to 50	0	1 to 25	0	0	0
COCC(C)Nc1nc(-c2nccn2C)nc2sc(-c3ccn(C)n3)c(-c3ccc(OC)cc3)c12 (stereo not drawn) [drawing 1004]	1 to 25	1 to 25	1 to 25	0	0	0
COCCCNc1nc(-c2nccn2C)nc2sc(-c3ccn(C)n3)c(-c3ccc(OC)cc3)c12 [drawing 1005]	51 to 75	1 to 25	1 to 25	0	0	0
COCCNc1nc(-c2nccn2C)nc2sc(-c3cc(OC)ccc3Cl)c(-c3ccccc3)c12 [drawing 1006]	51 to 75	1 to 25	1 to 25	26 to 50	26 to 50	1 to 25
COCCNc1nc(-c2nccn2C)nc2sc(-c3cccc(OC)c3Cl)c(-c3ccccc3)c12 [drawing 1007]	51 to 75	51 to 75	76 to 100	1 to 25	26 to 50	51 to 75
COCCNc1nc(-c2cn(C)cn2)nc2sc(-c3ccccc3Cl)c(-c3ccc(OC)cc3)c12 [drawing 1008]	0	0	76 to 100	26 to 50	26 to 50	26 to 50
COCCNc1nc(-c2nccn2C)nc2sc(-c3cccc(OC)c3Cl)c(-c3ccc(OC)cc3)c12 [drawing 1009]	26 to 50	26 to 50	51 to 75	1 to 25	51 to 75	26 to 50
COCCNc1nc(-c2nccn2C)nc2sc(-c3cccc(OC)c3)c(-c3ccc(OC)cc3)c12 [drawing 1010]	0	0	76 to 100	51 to 75	26 to 50	1 to 25
COCCNc1nc(-c2nccn2C)nc2sc(-c3ccccc3Cl)c(-c3ccc(OC)cc3)c12 [drawing 1011]	0	0	76 to 100	26 to 50	26 to 50	1 to 25
COCCNc1nc(-c2nccn2C)nc2sc(-c3cc(OC)ccc3Cl)c(-c3ccc(OC)cc3)c12 [drawing 1012]	1 to 25	26 to 50	26 to 50	1 to 25	1 to 25	1 to 25
COc1cccc(-c2csc3c(O)nc(-c4nccn4C)nc23)c1Cl [drawing 1013]	1 to 25	1 to 25	1 to 25	1 to 25	26 to 50	1 to 25
COc1c(O)nc(-c2ccccn2)nc1Oc1ccc(C(=O)N(C)C)cc1 [drawing 1014]	51 to 75	51 to 75	26 to 50	51 to 75	51 to 75	51 to 75
